The values below come from the supplement of paper PMC10307832.

Test in all cases: relative viability (nuclei count vs DMSO), 5 days (fraction); higher = more cells survive
Compound in the assay “Olaparib + Palbociclib”: O=C(c1cc(Cc2n[nH]c(=O)c3ccccc23)ccc1F)N1CCN(C(=O)C2CC2)CC1 [Olaparib] + CC(=O)c1c(C)c2cnc(Nc3ccc(N4CCNCC4)cn3)nc2n(C2CCCC2)c1=O [Palbociclib] (partner 0.5 µM)
The gist of the method: (§1)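 Nuclei were stained with Hoechst during a one-step fixation (final 0.05% Triton X-100, 1% formaldehyde, 1 ug/ml Hoechst) carried out 5 days after dosing, then counted on 4× images. The cells, lung cancer lines in 1536-well plates, had been dosed by pin tool the day after seeding with one drug alone or a fixed anchor-drug dose plus five library-drug doses (not always all listed) in √10 steps. Relative viability is the nuclei count in treated wells divided by that in vehicle wells, and each value is the median of duplicate plates.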

Compound in the assay “Crizotinib + Linsitinib”: C[C@@H](Oc1cc(-c2cnn(C3CCNCC3)c2)cnc1N)c1c(Cl)ccc(F)c1Cl [Crizotinib] + C[C@]1(O)C[C@@H](c2nc(-c3ccc4ccc(-c5ccccc5)nc4c3)c3c(N)nccn32)C1 [Linsitinib] (partner 1 µM)
The gist of the method:
as §1

Compound in the assay “Carfilzomib + Tozasertib”: CC(C)C[C@H](NC(=O)[C@H](CCc1ccccc1)NC(=O)CN1CCOCC1)C(=O)N[C@@H](Cc1ccccc1)C(=O)N[C@@H](CC(C)C)C(=O)[C@@]1(C)CO1 [Carfilzomib] + Cc1cc(Nc2cc(N3CCN(C)CC3)nc(Sc3ccc(NC(=O)C4CC4)cc3)n2)n[nH]1 [Tozasertib] (partner 0.1 µM)
In a few lines:
as §1

Compound in the assay “Crizotinib + Trametinib”: C[C@@H](Oc1cc(-c2cnn(C3CCNCC3)c2)cnc1N)c1c(Cl)ccc(F)c1Cl [Crizotinib] + CC(=O)Nc1cccc(-n2c(=O)n(C3CC3)c(=O)c3c(Nc4ccc(I)cc4F)n(C)c(=O)c(C)c32)c1 [Trametinib] (partner 0.02 µM)
The gist of the method: as §1

Compound in the assay “Olaparib + Decitabine”: O=C(c1cc(Cc2n[nH]c(=O)c3ccccc23)ccc1F)N1CCN(C(=O)C2CC2)CC1 [Olaparib] + Nc1ncn([C@H]2C[C@H](O)[C@@H](CO)O2)c(=O)n1 [Decitabine] (partner 2 µM)
In a few lines: as §1

For the cell line NCI-H1793, the relative viability with Olaparib + Palbociclib (first compound 0.08 µM) turned out to be 0.274; in the assay with Olaparib + Palbociclib (first compound 0.253 µM), 0.302; in the assay with Olaparib + Palbociclib (first compound 2.53 µM) it was 0.327; with Olaparib + Palbociclib (first compound 8 µM) it was 0.286; in the assay with Crizotinib + Linsitinib (first compound 0.01 µM), 1.01; with Crizotinib + Linsitinib (first compound 0.03162 µM), 0.922. The relative viability in the assay with Crizotinib + Linsitinib (first compound 0.1 µM) is 0.837; with Crizotinib + Linsitinib (first compound 1 µM) it was 0.87; with Carfilzomib + Tozasertib (first compound 0.003162 µM), 0.469; with Carfilzomib + Tozasertib (first compound 0.01 µM), 0.327; with Carfilzomib + Tozasertib (first compound 0.03162 µM), 0.292; with Carfilzomib + Tozasertib (first compound 0.1 µM), 0.123. The relative viability with Crizotinib + Trametinib (first compound 0.03162 µM) is 0.467; with Crizotinib + Trametinib (first compound 0.1 µM), 0.399; in the assay with Crizotinib + Trametinib (first compound 1 µM), 0.461; with Olaparib + Decitabine (first compound 0.08 µM) it was 0.338; with Olaparib + Decitabine (first compound 0.253 µM), 0.417; with Olaparib + Decitabine (first compound 2.53 µM), 0.337. The relative viability with Olaparib + Decitabine (first compound 8 µM) turned out to be 0.326.
